Assay results as given in patent publication US9315494B2, “Alkyl-amide-substituted pyridyl compounds useful as modulators of IL-12, IL-23 and/or IFNα responses” (Bristol-Myers Squibb Company, priority 2012, dated 2016).
pIC50: −log10 of the molar value. Read-outs that look alike come from different tables or passages of the source.

Assays:
[1] = test system: IFNα-stimulated STAT-dependent luciferase reporter in Kit225 T cells; assay: Kit225 T cell assay, IFNα stimulated STAT-dependent luciferase reporter; assay type: cell-based, human
In short: (§1)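 Kit225 T cells carrying a stably integrated STAT-luciferase reporter, in RPMI with 10% heat-inactivated FBS, were stimulated with 20 ng/mL IL-23 or 200 U/mL IFNα for 5-6 h. Readout was luminescence from the luciferase reporter.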

[2] = test system: IL-23-stimulated STAT-dependent luciferase reporter in Kit225 T cells; assay: Kit225 T cell assay, IL-23 stimulated STAT-dependent luciferase reporter; assay type: cell-based, human
In short: as §1

[3] = Kit225 T cells, 200 U/mL human recombinant IFNα, 5-6 hours, luciferase, read-out: IFNα (Kit225 T Cell Inhibition Data)
[4] = Kit225 T cells, 20 ng/mL human recombinant IL-23, 5-6 hours, luciferase, read-out: IL23 (Kit225 T Cell Inhibition Data)

| pIC50 [1, 3] | pIC50 [2, 4] | SMILES | pIC50 ([1]; Homo sapiens, KIT225, read-out: IFNα (Kit225 T Cell Inhibition Data)) | pIC50 ([2]; Homo sapiens, KIT225, read-out: IL23 (Kit225 T Cell Inhibition Data)) |
| --- | --- | --- | --- | --- |
| 7.30 | 7.05 | CNC(=O)c1cnc(Nc2ccccn2)cc1Nc1cccc(F)c1OC [Example 172] | – | – |
| 7.52 | 7.10 | CNC(=O)c1cnc(Nc2cc(C)nc(C)n2)cc1Nc1cccc(-c2ncnn2CC(F)F)c1OC [Example 379] | – | – |
| 5.01 | 5.28 | CNC(=O)c1cnc(Nc2ccc(C(F)(F)F)cn2)cc1Nc1ccc(F)cc1OC [Example 157] | – | – |
| 5.18 | 4.94 | CNC(=O)c1cnc(Nc2ccc(C(F)(F)F)cn2)cc1NC1CCCCC1C(N)=O (stereo not shown) [Example 290] | – | – |
| 5.62 | 5.73 | CNC(=O)c1cnc(Nc2ccc(F)cn2)cc1Nc1ccccc1O [Example 208] | – | – |
| 6.17 | 5.97 | CNC(=O)c1cnc(Nc2ccc(F)cn2)cc1Nc1ccccc1C(=O)N(C)C [Example 251] | – | – |
| 6.72 | 6.41 | CNC(=O)c1cnc(Nc2ccc(N3CCOC3=O)cn2)cc1Nc1ccc(Cl)cc1OC [Example 105] | – | – |
| 7.30 | 6.92 | CNC(=O)c1cnc(Nc2cc(C)ccn2)cc1Nc1cc(F)ccc1S(C)(=O)=O [Example 56] | – | – |
| 6.49 | 6.28 | CNC(=O)c1cnc(Nc2cc(C3CCC3)[nH]n2)cc1Nc1ccccc1S(C)(=O)=O [Example 445] | – | – |
| 6.25 | 5.99 | CNC(=O)c1cnc(Nc2ccc(F)cn2)cc1Nc1cccc(C)c1C(N)=O [Example 174] | – | – |
| 6.68 | 6.31 | CNC(=O)c1cnc(Nc2ccc(N3CCOCC3)cn2)cc1Nc1ccc(OC)cc1OC [Example 220] | – | – |
| 5.45 | 5.43 | CNC(=O)c1cnc(Nc2ccc(C(F)(F)F)cn2)cc1NC1CCCC1C(N)=O (stereo not shown) [Example 291] | – | – |
| 6.21 | 6.12 | CNC(=O)c1cnc(Nc2ccc(OC)cn2)cc1Nc1ccc(F)cc1OC [Example 161] | – | – |
| 5.82 | 5.47 | CNC(=O)c1cnc(Nc2ccc(C(F)(F)F)cn2)cc1Nc1cc(F)cc(F)c1OC [Example 135] | – | – |
| 6.34 | 6.31 | CNC(=O)c1cnc(Nc2cc(NCc3ccccc3)ncn2)cc1Nc1ccccc1S(C)(=O)=O [Example 424] | – | – |
| 8.00 | 7.70 | CNC(=O)c1cnc(Nc2cc(C)nc(C)n2)cc1Nc1cccc(-c2nnc[nH]2)c1OC [Example 362] | – | – |
| 6.92 | 6.66 | CNC(=O)c1cnc(Nc2cc(C)c(F)cn2)cc1Nc1cccc(C(=O)NCC(C)(C)C)c1OC [Example 340] | – | – |
| 6.48 | 5.92 | CNC(=O)c1cnc(Nc2cc(F)ccn2)cc1Nc1ccc(F)cc1OC [Example 149] | – | – |
| 7.40 | 7.22 | CNC(=O)c1cnc(Nc2cc(C)c(F)cn2)cc1Nc1cccc(C(=O)NCC(O)c2ccccc2)c1OC (stereo not shown) [Example 331] | – | – |
| 6.46 | 6.27 | CNC(=O)c1cnc(Nc2cc(C(N)=O)ccn2)cc1Nc1cc(F)cc(F)c1OC [Example 264] | – | – |
| 5.49 | 5.41 | CNC(=O)c1cnc(Nc2cc(C(N)=O)ccn2)cc1Nc1ccc(Cl)cc1OC [Example 97] | – | – |
| 7.52 | 7.29 | CNC(=O)c1cnc(Nc2cccc(C)n2)cc1Nc1ccccc1S(C)(=O)=O [Example 21] | – | – |
| 6.17 | 5.98 | CNC(=O)c1cnc(Nc2cc(C(C)=O)ccn2)cc1Nc1ccccc1S(C)(=O)=O [Example 26] | – | – |
| 5.58 | 5.63 | CNC(=O)c1cnc(Nc2ccc(F)cn2)cc1Nc1ccc(C(N)=O)cc1S(C)(=O)=O [Example 303] | – | – |
| 6.66 | 6.45 | CNC(=O)c1cnc(Nc2cccc(C(F)(F)F)n2)cc1Nc1cc(F)cc(F)c1OC [Example 138] | – | – |

| pIC50 [1, 3] | pIC50 [2, 4] | SMILES | pIC50 ([1]; Homo sapiens, KIT225, read-out: IFNα (Kit225 T Cell Inhibition Data)) | pIC50 ([2]; Homo sapiens, KIT225, read-out: IL23 (Kit225 T Cell Inhibition Data)) |
| --- | --- | --- | --- | --- |
| 4.96 | 5.06 | CNC(=O)c1cnc(Nc2ccc(F)cn2)cc1Nc1cccc2c1OC(F)(F)O2 [Example 123] | – | – |
| 8.00 | 8.00 | CNC(=O)c1cnc(Nc2cc(C)nc(C)n2)cc1Nc1cccc(-c2ncn(C)n2)c1OC [Example 372] | – | – |
| 8.00 | 8.02 | CNC(=O)c1cnc(Nc2cc(C)nc(C)n2)cc1Nc1cccc(-c2nc(C)n(CCF)n2)c1OC [Example 368] | – | – |
| 7.22 | 6.84 | CNC(=O)c1cnc(Nc2ccccn2)cc1Nc1ccc(OC)cc1S(C)(=O)=O [Example 8] | – | – |
| 6.85 | 6.85 | CNC(=O)c1cnc(Nc2cc(C#N)ccn2)cc1Nc1ccccc1NS(C)(=O)=O [Example 281] | – | – |
| 6.43 | 6.32 | CNC(=O)c1cnc(Nc2ccc(F)cn2)cc1Nc1ccccc1SC [Example 65] | – | – |
| 6.38 | 6.25 | CNC(=O)c1cnc(Nc2cc(C(F)(F)F)ccn2)cc1Nc1ccccc1C(N)=O [Example 91] | – | – |
| 8.00 | 7.30 | CNC(=O)c1cnc(Nc2cc(C)nc(C)n2)cc1Nc1cccc(-c2ncn(CC(F)F)n2)c1OC [Example 378] | – | – |
| 5.09 | 5.03 | CNC(=O)c1cnc(Nc2ccc(F)cn2)cc1Nc1ccc(F)c(F)c1 [Example 204] | – | – |
| 6.27 | 6.39 | CNC(=O)c1cnc(Nc2cc(C)ccn2)cc1Nc1cccc(F)c1S(C)(=O)=O [Example 49] | – | – |
| 5.68 | 5.34 | CNC(=O)c1ccc(Nc2cc(Nc3ccc(F)cn3)ncc2C(=O)NC)cc1 [Example 243] | – | – |
| 6.46 | 6.40 | CCc1cccc(Nc2cc(Nc3cc(F)cc(F)c3OC)c(C(=O)NC)cn2)n1 [Example 141] | – | – |
| 5.88 | 5.83 | CNC(=O)c1cnc(Nc2ncccc2F)cc1Nc1ccccc1C(N)=O [Example 69] | – | – |
| 6.02 | 5.79 | CNC(=O)c1cnc(Nc2cc(C#N)ccn2)cc1Nc1cccc(F)c1S(C)(=O)=O [Example 48] | – | – |
| 5.69 | 5.38 | CNC(=O)c1cnc(Nc2ccc(F)cn2)cc1Nc1cccc2[nH]ccc12 [Example 212] | – | – |
| 6.72 | 6.56 | CNC(=O)c1cnc(Nc2cc(C#N)ccn2)cc1Nc1ccc(F)cc1OC [Example 155] | – | – |
| 6.13 | 6.07 | CNC(=O)c1cnc(Nc2ccc(-c3ccccc3)cn2)cc1Nc1ccccc1C(N)=O [Example 76] | – | – |
| 5.73 | 5.35 | CNC(=O)c1cnc(Nc2ccc(C(F)(F)F)cn2)cc1Nc1ccc(Cl)cc1OC [Example 120] | – | – |
| – | – | CNC(=O)c1cnc(Nc2cc(C)nc(C)n2)cc1Nc1cccc(-c2nc(C)n(CC(F)(F)F)n2)c1OC [Example 370] | 7.52 | 7.52 |
| 7.00 | 6.81 | CNC(=O)c1cnc(Nc2ccc(N3CCOCC3)cn2)cc1Nc1ccc(OC)cc1S(C)(=O)=O [Example 7] | – | – |
| 7.22 | 7.22 | CNC(=O)c1cnc(Nc2cc(C)c(F)cn2)cc1Nc1cccc(C(=O)NCCCOC)c1OC [Example 349] | – | – |
| 6.72 | 6.44 | CNC(=O)c1cnc(Nc2ccn(C)n2)cc1Nc1ccccc1S(C)(=O)=O [Example 437] | – | – |
| 6.77 | 6.89 | CNC(=O)c1cnc(Nc2ccc(F)cn2)cc1Nc1cc(F)ccc1S(C)(=O)=O [Example 55] | – | – |
| 5.75 | 5.62 | CNC(=O)c1ccc(Nc2cc(Nc3ccc(Cl)cc3OC)c(C(=O)NC)cn2)nc1 [Example 260] | – | – |

| SMILES | pIC50 [1, 3] | pIC50 [2, 4] | pIC50 ([1]; Homo sapiens, KIT225, read-out: IFNα (Kit225 T Cell Inhibition Data)) | pIC50 ([2]; Homo sapiens, KIT225, read-out: IL23 (Kit225 T Cell Inhibition Data)) |
| --- | --- | --- | --- | --- |
| CNC(=O)c1cnc(Nc2cc(C#N)ccn2)cc1Nc1ccccc1S(C)(=O)=O [Example 30] | 6.24 | 6.12 | – | – |
